One may read the pEC50 as the negative decadic logarithm of the EC50, by convention in mol/L. As a reminder, the CC50 is the concentration giving 50% cytotoxicity. The low end stands for greater toxicity to the cells, the high end for lower toxicity to the cells.

This is an account of results in US11738019B2, “Substituted heterocycles as antiviral agents” (ENANTA PHARMACEUTICALS, INC., priority 2019, dated 2023).

The subject of one data set is HBV (2.2.15 cells). In words: HBV viral product reduction in 2.2.15 cells (qPCR / HBsAg or HBeAg ELISA). The settings on record: Hepatitis B virus, 120 h, day 5 post treatment, concentration reducing viral product accumulation in cell lysates or supernatants by 50% relative to no drug controls. Format: cell-based. As to the method:
2.2.15 cells are passaged upon attaining confluency in DMEM/F12 media in the presence of 10% FBS, Penn/Strep, and 250 ug/mL G418. Novel compounds are 5 fold serially diluted in DMSO and added to 96 well plates containing 35,000 cells/well at a 1:200 dilution so that the final concentration of DMSO is 0.5%. On day 5, post treatment cell lysates and supernatants are harvested for analysis.
Cells are lysed using Agilent Sidestep Lysis buffer, diluted 1:100 and quantified via quantitative real time PCR. Commercially available ELISA kits are used to quantitate the viral proteins HBsAg (Alpco) or HBeAg (US Biological) by following the manufacturer's recommended protocol after diluting samples to match the linear range of their respective assays. Irrespective of readout, compound concentrations that reduce viral product accumulation in the cell lysates or supernatants by 50% relative to no drug controls (EC50) are reported; EC50 ranges are as follows: A<0.1 μM; B 0.1-1 μM; C>1 μM.

The nature of data set [1]: compound induced cellular toxicity in HepG2 cells (ATPlite 1Step). Type of data set: cell-based. The settings on record: human, three days, concentration reducing total ATP levels by 50% relative to no drug controls. As for the experimental part:
At day 3, post seeding cells are treated with ATPlite 1Step according to the manufacturer's instructions.
Background: Cellular ATP, detected with luciferase, serves as a proxy for viable cell number.

SMILES strings stand for the structures. pEC50: −log10 of the molar value.

With `Cn1cc(-c2cc3c(c4occc24)C[C@@H](C(C)(C)C)n2cc(C(=O)O)c(=O)cc2-3)cn1` [Example 15, (S)-5-(tert-butyl)-12-(1-methyl-1H-pyrazol-4-yl)-9-oxo-4,9-dihydro-5H-furo[2,3-f]pyrido[2,1-a]isoquinoline-8-carboxylic acid], the negative logarithm of the EC50 (pEC50) in the data set with HBV (2.2.15 cells) was greater than 7.00. For the same compound, in data set [1], the CC50 at 3 days is greater than 25 µM.

In the case of `CC(C)(C)[C@@H]1Cc2c(cc(N3CCCC3)c3ccoc23)-c2cc(=O)c(C(=O)O)cn21` [Example 18, (S)-5-(tert-butyl)-9-oxo-12-(pyrrolidin-1-yl)-4,9-dihydro-5H-furo[2,3-f]pyrido[2,1-a]isoquinoline-8-carboxylic acid], the pEC50 with HBV (2.2.15 cells) is greater than 7.00. The compound further displayed a CC50 at 3 days in data set [1] greater than 25 µM.

`CC(C)(C)[C@@H]1Cc2c(cc(Cl)c3ccoc23)-c2cc(=O)c(C(=O)O)cn21` [Example 2, (S)-5-(tert-butyl)-12-chloro-9-oxo-4,9-dihydro-5H-furo[2,3-f]pyrido[2,1-a]isoquinoline-8-carboxylic acid] showed a pEC50 with HBV (2.2.15 cells) greater than 7.00. In data set [1], the CC50 at 3 days was greater than 25 µM.

Compound `CC(C)(C)[C@@H]1Cc2c(cc(-c3ccsc3)c3ccoc23)-c2cc(=O)c(C(=O)O)cn21` [Example 7, (S)-5-(tert-butyl)-9-oxo-12-(thiophen-3-yl)-4,9-dihydro-5H-furo[2,3-f]pyrido[2,1-a]isoquinoline-8-carboxylic acid] gave a pEC50 in the data set with HBV (2.2.15 cells) greater than 7.00. This compound also returned a half-maximal cytotoxic concentration (CC50) at 3 days in data set [1] of 10 to 25 µM.

`CC(C)(C)[C@@H]1Cc2c(cc(-c3ccoc3)c3occc23)-c2cc(=O)c(C(=O)O)cn21` [Example 13, (S)-5-(tert-butyl)-12-(furan-3-yl)-9-oxo-4,9-dihydro-5H-furo[3,2-f]pyrido[2,1-a]isoquinoline-8-carboxylic acid]: in the data set with HBV (2.2.15 cells), the pEC50 was greater than 7.00. Besides, the CC50 at 3 days in data set [1] lay within 10 to 25 µM.

In the data set with HBV (2.2.15 cells), `Cn1cc(-c2cc3c(c4ccoc24)C[C@@H](C(C)(C)C)n2cc(C(=O)O)c(=O)cc2-3)cn1` [Example 5, (S)-5-(tert-butyl)-12-(1-methyl-1H-pyrazol-4-yl)-9-oxo-4,9-dihydro-5H-furo[3,2-f]pyrido[2,1-a]isoquinoline-8-carboxylic acid] showed a pEC50 of less than 6.00. In data set [1], the CC50 at 3 days is greater than 25 µM.

`CC(C)(C)[C@@H]1Cc2c(cc(-c3ccco3)c3ccoc23)-c2cc(=O)c(C(=O)O)cn21` [Example 8, (S)-5-(tert-butyl)-12-(furan-2-yl)-9-oxo-4,9-dihydro-5H-furo[2,3-f]pyrido[2,1-a]isoquinoline-8-carboxylic acid]: the pEC50 with HBV (2.2.15 cells) was greater than 7.00. Besides, the CC50 at 3 days in data set [1] is greater than 25 µM.

In the case of `CC(C)(C)[C@@H]1Cc2c(cc(-c3cscn3)c3ccoc23)-c2cc(=O)c(C(=O)O)cn21` [Example 17, (S)-5-(tert-butyl)-9-oxo-12-(thiazol-4-yl)-4,9-dihydro-5H-furo[2,3-f]pyrido[2,1-a]isoquinoline-8-carboxylic acid], the pEC50 with HBV (2.2.15 cells) is greater than 7.00. In data set [1], this compound displayed a CC50 at 3 days greater than 25 µM.

On to `CC(C)(C)[C@@H]1Cc2c(cc(-c3cn[nH]c3)c3ccoc23)-c2cc(=O)c(C(=O)O)cn21` [Example 9, (S)-5-(tert-butyl)-9-oxo-12-(1H-pyrazol-4-yl)-4,9-dihydro-5H-furo[2,3-f]pyrido[2,1-a]isoquinoline-8-carboxylic acid], for which, in the data set on HBV (2.2.15 cells), the pEC50 is greater than 7.00. In data set [1], this compound registered a CC50 at 3 days greater than 25 µM.

In turn, `CC(C)(C)[C@@H]1Cc2c(cc(-c3ccoc3)c3ccoc23)-c2cc(=O)c(C(=O)O)cn21` [Example 3, (S)-5-(tert-butyl)-12-(furan-3-yl)-9-oxo-4,9-dihydro-5H-furo[2,3-f]pyrido[2,1-a]isoquinoline-8-carboxylic acid] showed a pEC50 in the data set on HBV (2.2.15 cells) greater than 7.00. For the same compound, the CC50 at 3 days in data set [1] is greater than 25 µM.

In the data set on HBV (2.2.15 cells), `CC(C)(C)[C@@H]1Cc2c(cc(N3CCC(F)(F)C3)c3ccoc23)-c2cc(=O)c(C(=O)O)cn21` [Example 19, (S)-5-(tert-butyl)-12-(3,3-difluoropyrrolidin-1-yl)-9-oxo-4,9-dihydro-5H-furo[2,3-f]pyrido[2,1-a]isoquinoline-8-carboxylic acid] showed a pEC50 greater than 7.00. The compound also showed a CC50 at 3 days in data set [1] of 10 to 25 µM.

Compound `CC(C)(C)[C@@H]1Cc2c(cc(-c3cccs3)c3ccoc23)-c2cc(=O)c(C(=O)O)cn21` [Example 10, (S)-5-(tert-butyl)-9-oxo-12-(thiophen-2-yl)-4,9-dihydro-5H-furo[2,3-f]pyrido[2,1-a]isoquinoline-8-carboxylic acid] gave a negative-log EC50 (pEC50) in the data set on HBV (2.2.15 cells) greater than 7.00. Moreover, the CC50 at 3 days in data set [1] lay within 10 to 25 µM.

For the compound `CC(C)(C)[C@@H]1Cc2c(cc(-c3ccn[nH]3)c3ccoc23)-c2cc(=O)c(C(=O)O)cn21` [Example 6, (S)-5-(tert-butyl)-9-oxo-12-(1H-pyrazol-5-yl)-4,9-dihydro-5H-furo[2,3-f]pyrido[2,1-a]isoquinoline-8-carboxylic acid], in the data set on HBV (2.2.15 cells), the pEC50 was greater than 7.00. Further, the half-maximal cytotoxic concentration (CC50) at 3 days in data set [1] fell in the range of 10 to 25 µM.

The compound `CC(C)(C)[C@@H]1Cc2c(cc(Cl)c3occc23)-c2cc(=O)c(C(=O)O)cn21` [Example 1, (S)-5-(tert-butyl)-12-chloro-9-oxo-4,9-dihydro-5H-furo[3,2-f]pyrido[2,1-a]isoquinoline-8-carboxylic acid] showed a negative-log EC50 (pEC50) with HBV (2.2.15 cells) greater than 7.00. This compound gave a CC50 at 3 days in data set [1] greater than 25 µM.

Consider `CC(C)(C)[C@@H]1Cc2c(cc(-c3cnco3)c3ccoc23)-c2cc(=O)c(C(=O)O)cn21` [Example 12, (S)-5-(tert-butyl)-12-(oxazol-5-yl)-9-oxo-4,9-dihydro-5H-furo[2,3-f]pyrido[2,1-a]isoquinoline-8-carboxylic acid], for which the pEC50 in the data set with HBV (2.2.15 cells) was greater than 7.00. Moreover, the CC50 at 3 days in data set [1] was greater than 25 µM.

In the data set with HBV (2.2.15 cells), `Cn1nccc1-c1cc2c(c3occc13)C[C@@H](C(C)(C)C)n1cc(C(=O)O)c(=O)cc1-2` [Example 14, (S)-5-(tert-butyl)-12-(1-methyl-1H-pyrazol-5-yl)-9-oxo-4,9-dihydro-5H-furo[2,3-f]pyrido[2,1-a]isoquinoline-8-carboxylic acid] had a pEC50 greater than 7.00. The compound also had a half-maximal cytotoxic concentration (CC50) at 3 days in data set [1] greater than 25 µM.

Take `CC(C)(C)[C@@H]1Cc2c(cc(-c3cnsc3)c3ccoc23)-c2cc(=O)c(C(=O)O)cn21` [Example 11, (S)-5-(tert-butyl)-12-(isothiazol-4-yl)-9-oxo-4,9-dihydro-5H-furo[2,3-f]pyrido[2,1-a]isoquinoline-8-carboxylic acid]: the pEC50 in the data set on HBV (2.2.15 cells) is greater than 7.00. For the same compound, the half-maximal cytotoxic concentration (CC50) at 3 days in data set [1] is greater than 25 µM.

As for `Cn1ccc(-c2cc3c(c4occc24)C[C@@H](C(C)(C)C)n2cc(C(=O)O)c(=O)cc2-3)n1` [Example 16, (S)-5-(tert-butyl)-12-(1-methyl-1H-pyrazol-3-yl)-9-oxo-4,9-dihydro-5H-furo[2,3-f]pyrido[2,1-a]isoquinoline-8-carboxylic acid], in the data set on HBV (2.2.15 cells), the negative logarithm of the EC50 (pEC50) is greater than 7.00. For the same compound, the CC50 at 3 days in data set [1] lay within 10 to 25 µM.

In turn, `CC(C)(C)[C@@H]1Cc2c(ccc3occc23)-c2cc(=O)c(C(=O)O)cn21` [Example 31, (S)-5-(tert-butyl)-9-oxo-4,9-dihydro-11-furo[3,2-f]pyrido[2,1-a]isoquinoline-8-carboxylic acid] showed a pEC50 in the data set with HBV (2.2.15 cells) of less than 6.00.
